Numbered stars: 1 amine (or outer) side, 2 acyl side, 3 side chain; on linkers, the order of the positions; unused ones are H or OH. Square brackets hold non-standard residues; d marks the D form. Side chains are listed from the residue outwards. Peptide text beside a SMILES is read from it. * marks the point of attachment. C18 diacid = O=C(O)CCCCCCCCCCCCCCCCC(=O)*; γGlu = O=C(O)[C@H](CCC(=O)[*:2])N[*:1]; Ac4c(3-oxa) = NC1(C(=O)O)COC1; dNle = CCCC[C@@H](N)C(=O)O; dNva = CCC[C@@H](N)C(=O)O; dAbu = CC[C@@H](N)C(=O)O; Abu = CC[C@H](N)C(=O)O; AEEA = NCCOCCOCC(=O)O
The compounds below were run against human GLP-1R (Homo sapiens, UniProt P43220) (assay: cAMP signal analysis of GLP-1R (GLP-1 receptor agonist activity)). Details: not given.
Sequence of human GLP-1R (P43220 24-463): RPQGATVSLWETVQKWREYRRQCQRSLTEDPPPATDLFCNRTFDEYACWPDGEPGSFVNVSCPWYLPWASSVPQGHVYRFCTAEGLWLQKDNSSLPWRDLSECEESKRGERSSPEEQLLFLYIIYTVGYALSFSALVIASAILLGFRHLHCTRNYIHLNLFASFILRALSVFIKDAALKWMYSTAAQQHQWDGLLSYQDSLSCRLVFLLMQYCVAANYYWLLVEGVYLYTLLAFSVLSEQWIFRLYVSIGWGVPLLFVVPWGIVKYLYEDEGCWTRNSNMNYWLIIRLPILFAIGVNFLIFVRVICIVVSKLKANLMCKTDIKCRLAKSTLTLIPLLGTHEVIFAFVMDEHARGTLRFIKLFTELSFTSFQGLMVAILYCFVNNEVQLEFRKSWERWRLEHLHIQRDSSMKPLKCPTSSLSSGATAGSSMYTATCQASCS
Format: cell-based
Method: A wild human GLP-1R (NM_002062.5) was subjected to transient transfection and screened for two weeks by 600 μg/ml of hygromycin-B to obtain a cell line which was recombined and integrated into an FlpInCHO (Invitrogen) cell stable expression system. The culture condition of the FlpInCHO cell was as follows: 10% of heat-inactivated fetal calf serum was added to a DMEM culture solution, and the culture was performed in a 5% carbon dioxide cell incubator.
In the test, an LANCE cAMP detection kit was used for measuring the cAMP signal intensity.
`CC[C@H](C)[C@H](NC(=O)[C@H](Cc1ccccc1)NC(=O)[C@H](CCC(=O)O)NC(=O)[C@H](CCCCNC(=O)COCCOCCNC(=O)COCCOCCNC(=O)CC[C@H](NC(=O)CCCCCCCCCCCCCCCCC(=O)O)C(=O)O)NC(=O)[C@H](C)NC(=O)[C@H](C)NC(=O)[C@H](CCC(N)=O)NC(=O)[C@@H]1CCCN1C(=O)[C@H](CCC(=O)O)NC(=O)[C@H](CC(C)C)NC(=O)[C@H](Cc1ccc(O)cc1)NC(=O)[C@H](CO)NC(=O)[C@H](CO)NC(=O)[C@@H](NC(=O)[C@H](CC(=O)O)NC(=O)[C@H](CO)NC(=O)[C@@H](NC(=O)[C@H](Cc1ccccc1)NC(=O)[C@@H](NC(=O)CNC(=O)[C@H](CCC(=O)O)NC(=O)[C@@H]1CCCN1C(=O)[C@@H](N)Cc1c[nH]cn1)[C@@H](C)O)[C@@H](C)O)C(C)C)C(=O)N[C@@H](C)C(=O)N[C@@H](Cc1c[nH]c2ccccc12)C(=O)N[C@@H](CC(C)C)C(=O)N[C@H](C(=O)N[C@@H](CCCNC(=N)N)C(=O)NCC(=O)N[C@@H](CCCNC(=N)N)C(=O)NCC(=O)O)C(C)C` [NO: 17] showed an EC50 of 3.32 ± 0.677 nM.

Same assay, conditions: CHO cell line stably expressing human GLP-1R; downstream cAMP signal, LANCE cAMP kit; read-out: GLP-1R EC50
For `CC[C@H](C)[C@H](NC(=O)[C@H](Cc1ccccc1)NC(=O)[C@H](CCC(=O)O)NC(=O)[C@H](CCCCNC(=O)COCCOCCNC(=O)COCCOCCNC(=O)CC[C@H](NC(=O)CCCCCCCCCCCCCCCCC(=O)O)C(=O)O)NC(=O)[C@H](C)NC(=O)[C@H](C)NC(=O)[C@H](CCC(N)=O)NC(=O)[C@@](C)(CC)NC(=O)[C@H](CCC(=O)O)NC(=O)[C@H](CC(C)C)NC(=O)[C@H](Cc1ccc(O)cc1)NC(=O)[C@H](CO)NC(=O)[C@H](CO)NC(=O)[C@@H](NC(=O)[C@H](CC(=O)O)NC(=O)[C@H](CO)NC(=O)[C@@H](NC(=O)[C@H](Cc1ccccc1)NC(=O)[C@@H](NC(=O)CNC(=O)[C@H](CCC(=O)O)NC(=O)[C@@](C)(CC)NC(=O)[C@@H](N)Cc1c[nH]cn1)[C@@H](C)O)[C@@H](C)O)C(C)C)C(=O)N[C@@H](C)C(=O)N[C@@H](Cc1c[nH]c2ccccc12)C(=O)N[C@@H](CC(C)C)C(=O)N[C@H](C(=O)N[C@@H](CCCNC(=N)N)C(=O)NCC(=O)N[C@@H](CCCNC(=N)N)C(=O)NCC(=O)O)C(C)C` [NO: 1], the EC50 was 91.7 ± 9.69 nM.
Compound `CC[C@H](C)[C@H](NC(=O)[C@H](Cc1ccccc1)NC(=O)[C@H](CCC(=O)O)NC(=O)[C@H](CCCCNC(=O)COCCOCCNC(=O)COCCOCCNC(=O)CC[C@H](NC(=O)CCCCCCCCCCCCCCCCC(=O)O)C(=O)O)NC(=O)[C@H](C)NC(=O)[C@H](C)NC(=O)[C@H](CCC(N)=O)NC(=O)C1(NC(=O)[C@H](CCC(=O)O)NC(=O)[C@H](CC(C)C)NC(=O)[C@H](Cc2ccc(O)cc2)NC(=O)[C@H](CO)NC(=O)[C@H](CO)NC(=O)[C@@H](NC(=O)[C@H](CC(=O)O)NC(=O)[C@H](CO)NC(=O)[C@@H](NC(=O)[C@H](Cc2ccccc2)NC(=O)[C@@H](NC(=O)CNC(=O)[C@H](CCC(=O)O)NC(=O)C2(NC(=O)[C@@H](N)Cc3c[nH]cn3)COC2)[C@@H](C)O)[C@@H](C)O)C(C)C)COC1)C(=O)N[C@@H](C)C(=O)N[C@@H](Cc1c[nH]c2ccccc12)C(=O)N[C@@H](CC(C)C)C(=O)N[C@H](C(=O)N[C@@H](CCCNC(=N)N)C(=O)NCC(=O)N[C@@H](CCCNC(=N)N)C(=O)NCC(=O)O)C(C)C` [NO: 5] (H-H[Ac4c(3-oxa)]EGTFTSDVSSYLE[Ac4c(3-oxa)]QAAK([AEEA-AEEA-γGlu-C18 diacid])EFIAWLVRGRG-OH) has an EC50 of 0.915 ± 0.126 nM.
For `CC[C@H](NC(=O)[C@H](CCC(=O)O)NC(=O)[C@H](CC(C)C)NC(=O)[C@H](Cc1ccc(O)cc1)NC(=O)[C@H](CO)NC(=O)[C@H](CO)NC(=O)[C@@H](NC(=O)[C@H](CC(=O)O)NC(=O)[C@H](CO)NC(=O)[C@@H](NC(=O)[C@H](Cc1ccccc1)NC(=O)[C@@H](NC(=O)CNC(=O)[C@H](CCC(=O)O)NC(=O)[C@H](CC)NC(=O)[C@@H](N)Cc1c[nH]cn1)[C@@H](C)O)[C@@H](C)O)C(C)C)C(=O)N[C@@H](CCC(N)=O)C(=O)N[C@@H](C)C(=O)N[C@@H](C)C(=O)N[C@@H](CCCCNC(=O)COCCOCCNC(=O)COCCOCCNC(=O)CC[C@H](NC(=O)CCCCCCCCCCCCCCCCC(=O)O)C(=O)O)C(=O)N[C@@H](CCC(=O)O)C(=O)N[C@@H](Cc1ccccc1)C(=O)N[C@H](C(=O)N[C@@H](C)C(=O)N[C@@H](Cc1c[nH]c2ccccc12)C(=O)N[C@@H](CC(C)C)C(=O)N[C@H](C(=O)N[C@@H](CCCNC(=N)N)C(=O)NCC(=O)N[C@@H](CCCNC(=N)N)C(=O)NCC(=O)O)C(C)C)[C@@H](C)CC` [NO: 7] (H-H[Abu]EGTFTSDVSSYLE[Abu]QAAK([AEEA-AEEA-γGlu-C18 diacid])EFIAWLVRGRG-OH), the EC50 was 8.8 ± 1.41 nM.
Compound `CC[C@@H](NC(=O)[C@H](CCC(=O)O)NC(=O)[C@H](CC(C)C)NC(=O)[C@H](Cc1ccc(O)cc1)NC(=O)[C@H](CO)NC(=O)[C@H](CO)NC(=O)[C@@H](NC(=O)[C@H](CC(=O)O)NC(=O)[C@H](CO)NC(=O)[C@@H](NC(=O)[C@H](Cc1ccccc1)NC(=O)[C@@H](NC(=O)CNC(=O)[C@H](CCC(=O)O)NC(=O)[C@@H](CC)NC(=O)[C@@H](N)Cc1c[nH]cn1)[C@@H](C)O)[C@@H](C)O)C(C)C)C(=O)N[C@@H](CCC(N)=O)C(=O)N[C@@H](C)C(=O)N[C@@H](C)C(=O)N[C@@H](CCCCNC(=O)COCCOCCNC(=O)COCCOCCNC(=O)CC[C@H](NC(=O)CCCCCCCCCCCCCCCCC(=O)O)C(=O)O)C(=O)N[C@@H](CCC(=O)O)C(=O)N[C@@H](Cc1ccccc1)C(=O)N[C@H](C(=O)N[C@@H](C)C(=O)N[C@@H](Cc1c[nH]c2ccccc12)C(=O)N[C@@H](CC(C)C)C(=O)N[C@H](C(=O)N[C@@H](CCCNC(=N)N)C(=O)NCC(=O)N[C@@H](CCCNC(=N)N)C(=O)NCC(=O)O)C(C)C)[C@@H](C)CC` [NO: 9] (H-H[dAbu]EGTFTSDVSSYLE[dAbu]QAAK([AEEA-AEEA-γGlu-C18 diacid])EFIAWLVRGRG-OH) has an EC50 of 0.675 ± 0.067 nM.
`CCSC[C@@H](NC(=O)[C@H](CCC(=O)O)NC(=O)[C@H](CC(C)C)NC(=O)[C@H](Cc1ccc(O)cc1)NC(=O)[C@H](CO)NC(=O)[C@H](CO)NC(=O)[C@@H](NC(=O)[C@H](CC(=O)O)NC(=O)[C@H](CO)NC(=O)[C@@H](NC(=O)[C@H](Cc1ccccc1)NC(=O)[C@@H](NC(=O)CNC(=O)[C@H](CCC(=O)O)NC(=O)[C@@H](CSCC)NC(=O)[C@@H](N)Cc1c[nH]cn1)[C@@H](C)O)[C@@H](C)O)C(C)C)C(=O)N[C@@H](CCC(N)=O)C(=O)N[C@@H](C)C(=O)N[C@@H](C)C(=O)N[C@@H](CCCCNC(=O)COCCOCCNC(=O)COCCOCCNC(=O)CC[C@H](NC(=O)CCCCCCCCCCCCCCCCC(=O)O)C(=O)O)C(=O)N[C@@H](CCC(=O)O)C(=O)N[C@@H](Cc1ccccc1)C(=O)N[C@H](C(=O)N[C@@H](C)C(=O)N[C@@H](Cc1c[nH]c2ccccc12)C(=O)N[C@@H](CC(C)C)C(=O)N[C@H](C(=O)N[C@@H](CCCNC(=N)N)C(=O)NCC(=O)N[C@@H](CCCNC(=N)N)C(=O)NCC(=O)O)C(C)C)[C@@H](C)CC` [NO: 11] (H-H[dC](Et)EGTFTSDVSSYLE[dC](Et)QAAK([AEEA-AEEA-γGlu-C18 diacid])EFIAWLVRGRG-OH) showed an EC50 of 8.1 ± 0.507 nM.
For `CCCC[C@@H](NC(=O)[C@H](CCC(=O)O)NC(=O)[C@H](CC(C)C)NC(=O)[C@H](Cc1ccc(O)cc1)NC(=O)[C@H](CO)NC(=O)[C@H](CO)NC(=O)[C@@H](NC(=O)[C@H](CC(=O)O)NC(=O)[C@H](CO)NC(=O)[C@@H](NC(=O)[C@H](Cc1ccccc1)NC(=O)[C@@H](NC(=O)CNC(=O)[C@H](CCC(=O)O)NC(=O)[C@@H](CCCC)NC(=O)[C@@H](N)Cc1c[nH]cn1)[C@@H](C)O)[C@@H](C)O)C(C)C)C(=O)N[C@@H](CCC(N)=O)C(=O)N[C@@H](C)C(=O)N[C@@H](C)C(=O)N[C@@H](CCCCNC(=O)COCCOCCNC(=O)COCCOCCNC(=O)CC[C@H](NC(=O)CCCCCCCCCCCCCCCCC(=O)O)C(=O)O)C(=O)N[C@@H](CCC(=O)O)C(=O)N[C@@H](Cc1ccccc1)C(=O)N[C@H](C(=O)N[C@@H](C)C(=O)N[C@@H](Cc1c[nH]c2ccccc12)C(=O)N[C@@H](CC(C)C)C(=O)N[C@H](C(=O)N[C@@H](CCCNC(=N)N)C(=O)NCC(=O)N[C@@H](CCCNC(=N)N)C(=O)NCC(=O)O)C(C)C)[C@@H](C)CC` [NO: 13] (H-H[dNle]EGTFTSDVSSYLE[dNle]QAAK([AEEA-AEEA-γGlu-C18 diacid])EFIAWLVRGRG-OH), the EC50 was 5.59 ± 0.575 nM.
`CCC[C@@H](NC(=O)[C@H](CCC(=O)O)NC(=O)[C@H](CC(C)C)NC(=O)[C@H](Cc1ccc(O)cc1)NC(=O)[C@H](CO)NC(=O)[C@H](CO)NC(=O)[C@@H](NC(=O)[C@H](CC(=O)O)NC(=O)[C@H](CO)NC(=O)[C@@H](NC(=O)[C@H](Cc1ccccc1)NC(=O)[C@@H](NC(=O)CNC(=O)[C@H](CCC(=O)O)NC(=O)[C@@H](CCC)NC(=O)[C@@H](N)Cc1c[nH]cn1)[C@@H](C)O)[C@@H](C)O)C(C)C)C(=O)N[C@@H](CCC(N)=O)C(=O)N[C@@H](C)C(=O)N[C@@H](C)C(=O)N[C@@H](CCCCNC(=O)COCCOCCNC(=O)COCCOCCNC(=O)CC[C@H](NC(=O)CCCCCCCCCCCCCCCCC(=O)O)C(=O)O)C(=O)N[C@@H](CCC(=O)O)C(=O)N[C@@H](Cc1ccccc1)C(=O)N[C@H](C(=O)N[C@@H](C)C(=O)N[C@@H](Cc1c[nH]c2ccccc12)C(=O)N[C@@H](CC(C)C)C(=O)N[C@H](C(=O)N[C@@H](CCCNC(=N)N)C(=O)NCC(=O)N[C@@H](CCCNC(=N)N)C(=O)NCC(=O)O)C(C)C)[C@@H](C)CC` [NO: 15] (H-H[dNva]EGTFTSDVSSYLE[dNva]QAAK([AEEA-AEEA-γGlu-C18 diacid])EFIAWLVRGRG-OH) was tested, and the EC50 was 2.9 ± 0.39 nM.

— patent US12590134B2, “GLP-1 agonist polypeptide compound and salt thereof, synthesis method therefor and use thereof” (Sinopep-Allsino Biopharmaceutical Co., Ltd., priority 2020, dated 2026)
